Data reported in paper PMC5667636 (Antiviral Research, 2017).

Experiments:
[1] = test system: neuraminidase (NA) of A(H3N2) viruses; assay type: biochemical, influenza A(H3N2) virus
[2] = test system: neuraminidase (NA) of B/Yamagata-lineage viruses; assay type: biochemical, influenza B/Yamagata-lineage virus
[3] = test system: neuraminidase (NA) of A(H1N1)pdm09 viruses; assay type: biochemical, influenza A(H1N1)pdm09 virus
[4] = test system: neuraminidase (NA) of B/Victoria-lineage viruses; assay type: biochemical, influenza B/Victoria-lineage virus

| SMILES | inhibition phenotype in NAI assay (NI/RI/HRI) [1] | inhibition phenotype in NAI assay (NI/RI/HRI) [2] | IC50 fold-change [1] [fold] | IC50 fold-change compared to reference median IC50 values [1] [fold] | inhibition phenotype in NAI assay (NI/RI/HRI) [3] | IC50 fold-change [4] |
| --- | --- | --- | --- | --- | --- | --- |
| [H]/N=C(\N)N[C@H]1C=C(C(=O)O)O[C@@H]([C@H](OC)[C@H](O)CO)[C@@H]1NC(C)=O [Laninamivir, laninamivir] | borderline NI | – | – | – | – | – |
| CCOC(=O)C1=C[C@@H](OC(CC)CC)[C@H](NC(C)=O)[C@@H](N)C1 [Oseltamivir, oseltamivir] | – | borderline RI | 87 | 87 | – | – |
| CC(=O)N[C@H]1[C@H]([C@H](O)[C@H](O)CO)OC(C(=O)O)=C[C@@H]1N=C(N)N [Zanamivir, zanamivir] | – | – | 32 | 32 | borderline RI | 14–17 fold |
